Reference: patent EP0052437A1, “Antibacterial compounds, processes for their preparation and compositions containing them” (BEECHAM GROUP PLC, priority 1980, dated 1982)
Converted amounts (≈) assume the structure as drawn.

How the values were obtained:
Format in all cases: cell-based
[1] = tested on: M. suipneumoniae PW/C/210; assay: Anti-mycoplasmal in vitro MIC; settings: Mesomycoplasma hyopneumoniae, 144 h, Friis broth solidified with 0.9% agarose, 6 days incubation at 37°C
Staph. aureus Oxford [2] = assay: Human bacteria MIC; settings: Staphylococcus aureus, nutrient agar with 5% chocolated horse blood, 18 hours at 37°C
Description: (§1) The values were determined by serial dilutions in nutrient agar with 5% chocolated horse blood after incubations for 18 hours at 37 °C.

E. Coli NCTC 10418 [3] = assay: Human bacteria MIC; settings: Escherichia coli, NCTC10418, nutrient agar with 5% chocolated horse blood, 18 hours at 37°C
Description: as §1

[4] = tested on: Neisseria catarrhalis 1502; assay: Human bacteria MIC; settings: nutrient agar with 5% chocolated horse blood, 18 hours at 37°C
Description: as §1

Staph. aureus Russell = assay: Human bacteria MIC; settings: Staphylococcus aureus, nutrient agar with 5% chocolated horse blood, 18 hours at 37°C
Description: as §1

Strep. faecalis I = assay: Human bacteria MIC; settings: Enterococcus faecalis, nutrient agar with 5% chocolated horse blood, 18 hours at 37°C
Description: as §1

E. coli ESS = assay: Human bacteria MIC; settings: Escherichia coli, nutrient agar with 5% chocolated horse blood, 18 hours at 37°C
Description: as §1

[5] = tested on: Corynebacterium xerosis 9755; assay: Human bacteria MIC; settings: nutrient agar with 5% chocolated horse blood, 18 hours at 37°C
Description: as §1

P. mirabilis 889 = assay: Human bacteria MIC; settings: Proteus mirabilis, nutrient agar with 5% chocolated horse blood, 18 hours at 37°C
Description: as §1

K. aerogenes A = assay: Human bacteria MIC; settings: Klebsiella aerogenes, nutrient agar with 5% chocolated horse blood, 18 hours at 37°C
Description: as §1

Staph. aureus W2827 = assay: Human bacteria MIC; settings: Staphylococcus aureus, nutrient agar with 5% chocolated horse blood, 18 hours at 37°C
Description: as §1

Strep. 641848-C = assay: Human bacteria MIC; settings: nutrient agar with 5% chocolated horse blood, 18 hours at 37°C
Description: as §1

[6] = tested on: Ps. aeruginosa NCTC 10662; assay: Human bacteria MIC; settings: Pseudomonas aeruginosa, NCTC10662, nutrient agar with 5% chocolated horse blood, 18 hours at 37°C
Description: as §1

Bacillus subtilis 6633 = assay: Human bacteria MIC; settings: nutrient agar with 5% chocolated horse blood, 18 hours at 37°C
Description: as §1

[7] = tested on: Pasteurella multocida 1633; assay: Human bacteria MIC; settings: nutrient agar with 5% chocolated horse blood, 18 hours at 37°C
Description: as §1

Sarcina lutea 8340 = assay: Human bacteria MIC; settings: Micrococcus luteus, nutrient agar with 5% chocolated horse blood, 18 hours at 37°C
Description: as §1

M. dispar NCTC 10125 = assay: Anti-mycoplasmal in vitro MIC; settings: 144 h, Friis broth solidified with 0.9% agarose, 6 days incubation at 37°C
Staph. aureus Oxford [8] = assay: Veterinary bacteria MIC; settings: Staphylococcus aureus, Diagnostic Sensitivity Test Agar, 18 hours at 37°C
Description: (§2) The values were determined using a two fold serial dilutions.in Diagnostic Sensitivity Test Agar with an inoculum of 10^4 organisms and incubation for 18 hours at 37°C.

E. Coli NCTC 10418 [9] = assay: Veterinary bacteria MIC; settings: Escherichia coli, NCTC10418, Diagnostic Sensitivity Test Agar, 18 hours at 37°C
Description: as §2

Past. multocida PA1 = assay: Veterinary bacteria MIC; settings: Pasteurella multocida, Diagnostic Sensitivity Test Agar, 18 hours at 37°C
Description: as §2

S. typhimurium S18 = assay: Veterinary bacteria MIC; settings: Salmonella enterica, Diagnostic Sensitivity Test Agar, 18 hours at 37°C
Description: as §2

Strep. uberis SPU1 = assay: Veterinary bacteria MIC; settings: Streptococcus uberis, Diagnostic Sensitivity Test Agar, 18 hours at 37°C
Description: as §2

[10] = tested on: Corynebacterium pyogenes CY1; assay: Veterinary bacteria MIC; settings: Trueperella pyogenes, Diagnostic Sensitivity Test Agar, 18 hours at 37°C
Description: as §2

[11] = tested on: Strep. suis (group D) SPS11; assay: Veterinary bacteria MIC; settings: Streptococcus suis, Diagnostic Sensitivity Test Agar, 18 hours at 37°C
Description: as §2

S. dublin S7 = assay: Veterinary bacteria MIC; settings: Salmonella enterica, Diagnostic Sensitivity Test Agar, 18 hours at 37°C
Description: as §2

Strep. agalactiae SPA1 = assay: Veterinary bacteria MIC; settings: Streptococcus agalactiae, Diagnostic Sensitivity Test Agar, 18 hours at 37°C
Description: as §2

Bord. bronchiseptica BO9 = assay: Veterinary bacteria MIC; settings: Bordetella bronchiseptica, Diagnostic Sensitivity Test Agar, 18 hours at 37°C
Description: as §2

[12] = tested on: Erysipelothrix rhusiopathiae NCTC 8163; assay: Veterinary bacteria MIC; settings: NCTC8163, Diagnostic Sensitivity Test Agar, 18 hours at 37°C
Description: as §2

Staph. aureus 152 = assay: Veterinary bacteria MIC; settings: Staphylococcus aureus, Diagnostic Sensitivity Test Agar, 18 hours at 37°C
Description: as §2

Bord. bronchiseptica BO8 = assay: Veterinary bacteria MIC; settings: Bordetella bronchiseptica, Diagnostic Sensitivity Test Agar, 18 hours at 37°C
Description: as §2

Strep. dysgalactiae SPD1 = assay: Veterinary bacteria MIC; settings: Streptococcus dysgalactiae, Diagnostic Sensitivity Test Agar, 18 hours at 37°C
Description: as §2

Past. haemolytica PA5 = assay: Veterinary bacteria MIC; settings: Mannheimia haemolytica, Diagnostic Sensitivity Test Agar, 18 hours at 37°C
Description: as §2

Staph. aureus B4 = assay: Veterinary bacteria MIC; settings: Staphylococcus aureus, Diagnostic Sensitivity Test Agar, 18 hours at 37°C
Description: as §2

E. Coli E1 = assay: Veterinary bacteria MIC; settings: Escherichia coli, Diagnostic Sensitivity Test Agar, 18 hours at 37°C
Description: as §2

Past. multocida PA2 = assay: Veterinary bacteria MIC; settings: Pasteurella multocida, Diagnostic Sensitivity Test Agar, 18 hours at 37°C
Description: as §2

M. gallisepticum S6 = assay: Anti-mycoplasmal in vitro MIC; settings: Mycoplasmoides gallisepticum, 144 h, Friis broth solidified with 0.9% agarose, 6 days incubation at 37°C
[13] = tested on: M. hyosynoviae ATCC 25591; assay: Anti-mycoplasmal in vitro MIC; settings: 144 h, Friis broth solidified with 0.9% agarose, 6 days incubation at 37°C
[14] = tested on: M. bovigenitalium ATCC 14173; assay: Anti-mycoplasmal in vitro MIC; settings: 144 h, Friis broth solidified with 0.9% agarose, 6 days incubation at 37°C
M. suipneumoniae LABER = assay: Anti-mycoplasmal in vitro MIC; settings: Mesomycoplasma hyopneumoniae, 144 h, Friis broth solidified with 0.9% agarose, 6 days incubation at 37°C

| Structure (SMILES) | MIC [1] [mg/L] | MIC (Staph. aureus Oxford [2]) [mg/L] | MIC (E. Coli NCTC 10418 [3]) [mg/L] | MIC [4] [mg/L] | MIC (Staph. aureus Russell) [mg/L] | MIC (Strep. faecalis I) [mg/L] | MIC (E. coli ESS) [mg/L] | MIC [5] [mg/L] | MIC (P. mirabilis 889) [mg/L] | MIC (K. aerogenes A) [mg/L] | MIC (Staph. aureus W2827) [mg/L] | MIC (Strep. 641848-C) [mg/L] | MIC [6] [mg/L] | MIC (Bacillus subtilis 6633) [mg/L] | MIC [7] [mg/L] | MIC (Sarcina lutea 8340) [mg/L] | MIC (M. dispar NCTC 10125) [mg/L] | MIC (Staph. aureus Oxford [8]) [mg/L] | MIC (E. Coli NCTC 10418 [9]) [mg/L] | MIC (Past. multocida PA1) [mg/L] | other results |
| --- | --- | --- | --- | --- | --- | --- | --- | --- | --- | --- | --- | --- | --- | --- | --- | --- | --- | --- | --- | --- | --- |
| C/C(=C\C(=O)OCc1ccc(C#N)cc1)CC1OCC(CC2OC2C(C)C(C)O)C(O)C1O (stereo not drawn) [Example 3, p-Cyanobenzyl monate A] | 0.1 (≈ 0.218 µM) | 0.25 (≈ 0.544 µM) | 50 (≈ 109 µM) | 0.1 (≈ 0.218 µM) | 0.5 (≈ 1.09 µM) | 100 (≈ 218 µM) | 0.25 (≈ 0.544 µM) | > 100 | 50 (≈ 109 µM) | 50 (≈ 109 µM) | 0.5 (≈ 1.09 µM) | 0.25 (≈ 0.544 µM) | > 100 | 0.1 (≈ 0.218 µM) | 0.5 (≈ 1.09 µM) | > 100 | 0.05 (≈ 0.109 µM) | 0.312 (≈ 0.679 µM) | 80 (≈ 174 µM) | 0.625 (≈ 1.36 µM) | MIC (S. typhimurium S18): 80 mg/L (≈ 174 µM); MIC (Strep. uberis SPU1): 0.07 mg/L (≈ 0.152 µM); MIC [10]: > 80 mg/L; MIC [11]: 2.5 mg/L (≈ 5.44 µM); MIC (S. dublin S7): > 80 mg/L; MIC (Strep. agalactiae SPA1): 1.25 mg/L (≈ 2.72 µM); MIC (Bord. bronchiseptica BO9): 10 mg/L (≈ 21.8 µM); MIC [12]: 40 mg/L (≈ 87 µM); MIC (Staph. aureus 152): 0.312 mg/L (≈ 0.679 µM); MIC (Bord. bronchiseptica BO8): 20 mg/L (≈ 43.5 µM); MIC (Strep. dysgalactiae SPD1): 0.156 mg/L (≈ 0.339 µM); MIC (Past. haemolytica PA5): 2.5 mg/L (≈ 5.44 µM); MIC (Staph. aureus B4): 0.625 mg/L (≈ 1.36 µM); MIC (E. Coli E1): 80 mg/L (≈ 174 µM); MIC (Past. multocida PA2): 0.156 mg/L (≈ 0.339 µM); MIC (M. gallisepticum S6): 0.25 mg/L (≈ 0.544 µM); MIC [13]: < 0.01 mg/L; MIC [14]: ≤ 0.01 mg/L; MIC (M. suipneumoniae LABER): 0.1 mg/L (≈ 0.218 µM) |
| C/C(=C\C(=O)OC(C)c1ccc(C#N)cc1)CC1OCC(CC2OC2C(C)C(C)O)C(O)C1O (stereo not drawn) [Example 4, 1-(p-Cyanophenyl)ethyl monate A] | 1 (≈ 2.11 µM) | 2.5 (≈ 5.28 µM) | > 100 | 0.5 (≈ 1.06 µM) | 5 (≈ 10.6 µM) | > 100 | 2.5 (≈ 5.28 µM) | > 100 | > 100 | > 100 | 5 (≈ 10.6 µM) | 2.5 (≈ 5.28 µM) | > 100 | 1 (≈ 2.11 µM) | 10 (≈ 21.1 µM) | > 100 | 0.5 (≈ 1.06 µM) | 2.5 (≈ 5.28 µM) | > 80 | 10 (≈ 21.1 µM) | MIC (S. typhimurium S18): > 80 mg/L; MIC (Strep. uberis SPU1): 1.25 mg/L (≈ 2.64 µM); MIC [10]: > 80 mg/L; MIC [11]: 20 mg/L (≈ 42.2 µM); MIC (S. dublin S7): > 80 mg/L; MIC (Strep. agalactiae SPA1): 10 mg/L (≈ 21.1 µM); MIC (Bord. bronchiseptica BO9): 20 mg/L (≈ 42.2 µM); MIC [12]: 40 mg/L (≈ 84.5 µM); MIC (Staph. aureus 152): 5 mg/L (≈ 10.6 µM); MIC (Bord. bronchiseptica BO8): 80 mg/L (≈ 169 µM); MIC (Strep. dysgalactiae SPD1): 1.25 mg/L (≈ 2.64 µM); MIC (Past. haemolytica PA5): 40 mg/L (≈ 84.5 µM); MIC (Staph. aureus B4): 10 mg/L (≈ 21.1 µM); MIC (E. Coli E1): > 80 mg/L; MIC (Past. multocida PA2): < 0.019 mg/L; MIC (M. gallisepticum S6): 10 mg/L (≈ 21.1 µM); MIC [13]: 0.1 mg/L (≈ 0.211 µM); MIC [14]: 0.025 mg/L (≈ 0.0528 µM); MIC (M. suipneumoniae LABER): 1 mg/L (≈ 2.11 µM) |
| C/C(=C\C(=O)OCc1cccc(C#N)c1)CC1OCC(C/C=C/C(C)C(C)O)C(O)C1O (stereo not drawn) [Example 5, m-Cyanobenzyl monate C] | 0.5 (≈ 1.13 µM) | 2.5 (≈ 5.64 µM) | > 100 | 2.5 (≈ 5.64 µM) | 2.5 (≈ 5.64 µM) | > 100 | 5 (≈ 11.3 µM) | > 100 | > 100 | > 100 | 2.5 (≈ 5.64 µM) | 2.5 (≈ 5.64 µM) | > 100 | 2.5 (≈ 5.64 µM) | 10 (≈ 22.5 µM) | > 100 | 0.1 (≈ 0.225 µM) | 2.5 (≈ 5.64 µM) | > 80 | 10 (≈ 22.5 µM) | MIC (S. typhimurium S18): > 80 mg/L; MIC (Strep. uberis SPU1): 0.156 mg/L (≈ 0.352 µM); MIC [10]: > 80 mg/L; MIC [11]: > 80 mg/L; MIC (S. dublin S7): > 80 mg/L; MIC (Strep. agalactiae SPA1): 2.5 mg/L (≈ 5.64 µM); MIC (Bord. bronchiseptica BO9): 20 mg/L (≈ 45.1 µM); MIC [12]: 80 mg/L (≈ 180 µM); MIC (Staph. aureus 152): 2.5 mg/L (≈ 5.64 µM); MIC (Bord. bronchiseptica BO8): > 80 mg/L; MIC (Strep. dysgalactiae SPD1): 0.156 mg/L (≈ 0.352 µM); MIC (Past. haemolytica PA5): 40 mg/L (≈ 90.2 µM); MIC (Staph. aureus B4): 2.5 mg/L (≈ 5.64 µM); MIC (E. Coli E1): > 80 mg/L; MIC (Past. multocida PA2): 5 mg/L (≈ 11.3 µM); MIC (M. gallisepticum S6): 10 mg/L (≈ 22.5 µM); MIC [13]: 0.5 mg/L (≈ 1.13 µM); MIC [14]: 0.1 mg/L (≈ 0.225 µM); MIC (M. suipneumoniae LABER): 0.5 mg/L (≈ 1.13 µM) |
